Values of other authors in publication PMC4108727 (Angewandte Chemie (International ed. in English), 2013).

Biological target: MTH1 (Homo sapiens, UniProt P36639)
Conditions: substrate of MTH1; cited from earlier work

| SMILES | Km [µM] |
| --- | --- |
| Nc1ncnc2c1[nH]c(=O)n2[C@H]1C[C@H](O)[C@@H](COP(=O)(O)OP(=O)(O)OP(=O)(O)O)O1 [8-oxo-dATP] | 13.9 |
| Nc1nc2c([nH]c(=O)n2[C@H]2C[C@H](O)[C@@H](COP(=O)(O)OP(=O)(O)OP(=O)(O)O)O2)c(=O)[nH]1 [8-oxo-dGTP] | 15.2 |
